These results are taken from patent US20250235456A1, “METHODS OF USE FOR AZA-QUINAZOLINE COMPOUNDS” (Iambic Therapeutics, Inc., priority 2024, published 2025).

One test relates to MCF-7 cells. In words: Cell Growth Inhibition, MCF-7 (CellTiterGlo, 6 days). Type of test: cell-based. From the text: (§1) MCF-7 and OVCAR-3 cells were used to evaluate the anti-proliferation activity of the CDK inhibitors. MCF-7 (ATCC, HTB-22) cells are epithelial cells from a patient with ER+ metastatic adenocarcinoma. OVCAR-3 (ATCC, HTB-161) cells were derived from malignant ascites of a patient with ovarian cancer and are known to have CCNE1 amplification. Both cell lines were maintained in RPMI media supplemented with 10% fetal bovine serum. For cell growth inhibition assay, CDK inhibitors in DMSO solution were dispensed with either Echo 655 (Beckman Coulter) or Tecan D300e (TIP) into 384-well plates (Corning #3765) and the 384-well plates were UV-sterilized prior to the assay. The inhibitors were typically tested in the 10-10,000 nM concentration range with half-log serial dilutions. MCF-7 or OVCAR-3 (500 cells/30 μL/well) were added to each well using Multidrop Combi (ThermoFisher) using standard cassettes. The assay plates with cells were cultured at 37° C., 5% CO2 for 6 days. At the end of the 6-day treatment, 30 μL of CellTiterGlo 2.0 (Promega) was added to each well and the luminescent signal was read using CLARIOstar plus (BMG). The percentage of cell growth inhibition (% CGI) was calculated using the following formula % CGI=100-100×luminescencesample/luminescenecontrol. The half maximal inhibitory concentration (IC50) was determined by nonlinear curve fitting (four parameters, variable slope).
(ATP-based viability assays read luminescence as a measure of living cells.)

The next test addresses CDK6/Cyclin D3 (Homo sapiens (Human), UniProt Q00534). In words: CDK6/Cyclin D3 ADP-Glo Kinase Assay. The test is classed as biochemical. The following applies: read-out: CDK6/CyclinD3 IC50. Summed up: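 Commercial CDK6/Cyclin D3 pre-incubated with inhibitor 30 min at room temperature, then reaction started with ATP/substrate and run 90 min at room temperature. ADP formed measured by ADP-Glo luminescence; IC50 from fractional velocity vs inhibitor concentration fit to a 4-parameter equation.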
On the technique in general: ADP-Glo first removes unused ATP, then detects ADP through luciferase.

Test [1] addresses T1, CDK4/Cyclin D1 (Homo sapiens (Human), UniProt P11802). In words: CDK4/Cyclin D1 CHEF Assay. The test is classed as biochemical. The conditions noted are these: AQT; read-out: CDK4/CyclinD1 AQT IC50. Summed up:
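Peptide substrate AQT0258 carries a Sox fluorophore whose Mg(II)-dependent fluorescence (ex 360/em 485 nm) rises on phosphorylation. Enzyme and inhibitor pre-incubated 30 min at 22 °C, substrate added, reaction run 3 h at 22 °C. IC50 from 4-parameter fit of fractional velocity vs inhibitor concentration.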

Test [2] deals with CDK2/Cyclin E1 full length (Homo sapiens (Human), UniProt P24941). In words: CDK2/Cyclin E1 Full length ADP-Glo Kinase Assay. Type of test: biochemical. The conditions noted are these: read-out: CDK2/CyclinE1 IC50. As for the experimental part:
CDK2/Cyclin E1 Full length ADP-Glo Kinase Assay
The purpose of CDK2/Cyclin El assay is to evaluate the inhibition (% inhibition and IC50 values) of small molecule inhibitors by using a Luminescent based ADP-Glo assay. CDK2/Cyclin El full length catalyzes the production of ADP from ATP. ADP-Glo assay monitors ADP producing biochemical reactions. ADP-Glo is performed in 2 steps upon completion of kinase reaction: a combined termination of kinase reaction and depletion of remaining ATP in the first step, and conversion of generated ADP to ATP and the newly produced ATP to light output using luciferase/luciferin reaction in the second step. The luminescent signal generated is proportional to the ADP concentration produced and is correlated with the kinase activity. CDK2/Cyclin E1 was purchased from Eurofins (Cat 14-475M). […] The assay was initiated with the addition of ATP-containing substrate solution, following a 30-minute pre-incubation of enzyme and inhibitor at room temperature in the reaction mixture. The reaction was stopped after 90 minutes at room temperature by the addition of 10 μL of ADP-GLO Reagent. After a 90 minute incubation, 20 uL of Kinase Detection Reagent was added. Samples were incubated for 40 minutes, after which plate well luminescence was measured on a Envision microplate reader. The IC50 determinations were made from a plot of the fractional velocity as a function of inhibitor concentration fit to the 4 parameters IC50 equation.

A further test deals with OVCAR-3 cells. In words: Cell Growth Inhibition, OVCAR-3 (CellTiterGlo, 6 days). Type of test: cell-based.
Source text: as §1

The target in a further test is CDK1/Cyclin B1 (Homo sapiens (Human), UniProt P06493). In words: CDK1/Cyclin B1 ADP-Glo Kinase Assay. Type of test: biochemical. Put shortly:
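Purchased CDK1/Cyclin B1 was pre-incubated 30 min with inhibitor at room temperature, then reacted 90 min at room temperature after adding ATP-containing substrate. ADP formed was read by two-step ADP-Glo luminescence. IC50 came from a 4-parameter fit of fractional velocity versus inhibitor concentration.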

For test [3], the target named is T1, CDK4/Cyclin D1. In words: CDK4/Cyclin D1 Mobility Shift Assay (MSA). The test is classed as biochemical. The following applies: read-out: CDK4/CyclinD1 MSA IC50. From the text: CDK4/Cyclin D1 Mobility Shift Assay (MSA) The purpose CDK4/Cyclin D1 assay is to evaluate the inhibition (% inhibition and IC50 values) in the presence of small molecule inhibitors by using a fluorescence based microfluidic mobility shift assay. CDK4/Cyclin D1 catalyzes the production of ADP from ATP that accompanies the phosphoryl transfer to the substrate peptide 5-FAM-Dyrktide (5-FAM-[…]) (Perkin Elmer Peptide 34). The mobility shift assay (MSA) electrophoretically separates the fluorescently labelled peptides (substrate and phosphorylated product) following the kinase reaction. Both substrate and product are measured, and the ratio of these values is used to generate % conversion of substrate to product by the LabChip EZ Reader. Typical reaction solutions contained 2% DMSO (+/−inhibitor), 10 mM MgCl2, 1 mM EGTA, 0.05% BSA, 2 mM DTT, 0.2 mM ATP, 0.01% Brig-35, 1.5 uM 5-FAM-Dyrktide, 2.5 nM CDK4/Cyclin D1 in 50 mM HEPES buffer at pH 7.5. The reaction was initiated with the addition of substrate solution, following a 30-minute pre-incubation of enzyme and inhibitor at 22° C. in the reaction mix. The reaction was stopped after 180 minutes by the addition of 75 μL of 500 mM EDTA and measured on a Perkin Elmer EZ reader instrument. IC50 determinations were made from a plot of the fractional velocity as a function of inhibitor concentration fit to the 4 parameters IC50 equation.

Where two headings read alike, the source gives them in different places.

T1 sequence (P11802 whole entry, species assumed): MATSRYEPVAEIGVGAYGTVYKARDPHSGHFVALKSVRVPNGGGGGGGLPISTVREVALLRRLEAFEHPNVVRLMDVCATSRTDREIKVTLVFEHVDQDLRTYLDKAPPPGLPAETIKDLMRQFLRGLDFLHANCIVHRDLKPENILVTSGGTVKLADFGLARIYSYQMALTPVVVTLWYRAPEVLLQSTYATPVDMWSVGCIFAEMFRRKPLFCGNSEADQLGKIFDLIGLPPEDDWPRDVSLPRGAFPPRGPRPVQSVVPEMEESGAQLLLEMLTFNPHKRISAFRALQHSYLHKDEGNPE
T1 sequence (P24385 whole entry partner, species assumed): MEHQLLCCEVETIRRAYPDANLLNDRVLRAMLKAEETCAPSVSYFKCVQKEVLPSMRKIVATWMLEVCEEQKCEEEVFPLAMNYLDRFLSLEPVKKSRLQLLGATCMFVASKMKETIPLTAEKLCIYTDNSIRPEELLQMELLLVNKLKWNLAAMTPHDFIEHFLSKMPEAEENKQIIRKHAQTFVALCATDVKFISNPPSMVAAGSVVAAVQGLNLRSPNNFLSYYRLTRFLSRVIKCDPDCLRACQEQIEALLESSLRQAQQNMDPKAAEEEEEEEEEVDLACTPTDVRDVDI
Chain of CDK1/Cyclin B1 (P06493 whole entry): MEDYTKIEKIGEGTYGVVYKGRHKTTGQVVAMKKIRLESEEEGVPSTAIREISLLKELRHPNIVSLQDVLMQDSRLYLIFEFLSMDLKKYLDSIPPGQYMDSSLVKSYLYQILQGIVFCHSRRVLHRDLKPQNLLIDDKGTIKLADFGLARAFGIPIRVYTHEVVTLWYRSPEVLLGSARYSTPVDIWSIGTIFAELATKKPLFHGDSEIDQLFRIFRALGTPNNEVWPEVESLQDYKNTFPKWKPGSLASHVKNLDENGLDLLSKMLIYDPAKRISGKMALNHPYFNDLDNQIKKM
Chain of CDK1/Cyclin B1 (P14635 whole entry partner): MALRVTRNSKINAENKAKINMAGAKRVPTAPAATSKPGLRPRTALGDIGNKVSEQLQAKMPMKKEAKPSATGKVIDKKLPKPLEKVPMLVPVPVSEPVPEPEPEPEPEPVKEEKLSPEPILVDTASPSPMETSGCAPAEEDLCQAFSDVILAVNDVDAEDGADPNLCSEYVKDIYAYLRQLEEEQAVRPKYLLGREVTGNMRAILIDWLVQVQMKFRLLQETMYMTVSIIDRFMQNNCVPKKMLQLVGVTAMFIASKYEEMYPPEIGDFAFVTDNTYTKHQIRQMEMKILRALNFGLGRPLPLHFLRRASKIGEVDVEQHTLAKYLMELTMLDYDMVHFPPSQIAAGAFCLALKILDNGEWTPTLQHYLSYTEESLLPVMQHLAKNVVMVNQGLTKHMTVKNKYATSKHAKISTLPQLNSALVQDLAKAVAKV
Chain of CDK6/Cyclin D3 (Q00534 whole entry): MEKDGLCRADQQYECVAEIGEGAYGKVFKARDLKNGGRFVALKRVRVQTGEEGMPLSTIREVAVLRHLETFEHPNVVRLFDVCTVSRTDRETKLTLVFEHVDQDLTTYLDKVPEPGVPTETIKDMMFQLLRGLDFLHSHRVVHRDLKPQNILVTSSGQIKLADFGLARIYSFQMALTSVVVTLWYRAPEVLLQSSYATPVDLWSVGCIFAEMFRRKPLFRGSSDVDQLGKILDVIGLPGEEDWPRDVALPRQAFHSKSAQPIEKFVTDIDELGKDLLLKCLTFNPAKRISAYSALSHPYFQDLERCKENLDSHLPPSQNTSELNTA
Chain of CDK6/Cyclin D3 (P30281 whole entry partner): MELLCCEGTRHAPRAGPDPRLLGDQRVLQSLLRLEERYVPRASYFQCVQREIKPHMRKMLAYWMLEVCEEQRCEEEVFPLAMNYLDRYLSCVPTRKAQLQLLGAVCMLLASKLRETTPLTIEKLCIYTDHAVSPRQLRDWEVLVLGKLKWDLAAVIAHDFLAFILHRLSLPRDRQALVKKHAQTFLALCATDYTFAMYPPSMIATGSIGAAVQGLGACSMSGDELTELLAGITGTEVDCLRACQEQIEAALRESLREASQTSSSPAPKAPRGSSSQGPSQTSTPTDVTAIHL

Take “1-cyclopropyl-3-(6-methyl-2-((1-(methylsulfonyl)piperidin-4-yl)amino)pyrido[3,4-d]pyrimidin-8-yl)cyclobutan-1-ol [Compound 85]”: the IC50 was 500 to 2000 nM in the test on MCF-7 cells; less than 200 nM on CDK6/Cyclin D3; less than 200 nM at CDK4/Cyclin D1 [1]; less than 200 nM in test [2]; 500 to 2000 nM in the test with OVCAR-3 cells; less than 200 nM against CDK1/Cyclin B1.

Take `CN1CCN(c2ccc(Nc3ncc4ccnc(N5CCC6(C5)CC(F)(F)C6)c4n3)cc2)CC1` [Compound 4, 8-(2,2-difluoro-6-azaspiro[3.4]octan-6-yl)-N-(4-(4-methylpiperazin-1-yl)phenyl)pyrido [3,4-d]pyrimidin-2-amine]: the figures for the IC50 at CDK6/Cyclin D3, on CDK4/Cyclin D1 [3] and against CDK1/Cyclin B1 were less than 200 nM, less than 200 nM and 200 to 500 nM, respectively.

Take `CS(=O)(=O)N1CCC(Nc2ncc3ccnc(N4CCC(C#N)(C5CC5)C4)c3n2)CC1` (stereo not shown) [Compound 5, 3-cyclopropyl-1-(2-((1-(methylsulfonyl)piperidin-4-yl)amino)pyrido[3,4-d]pyrimidin-8-yl)pyrrolidine-3-carbonitrile]: the IC50 on CDK6/Cyclin D3, on CDK4/Cyclin D1 [3] and at CDK1/Cyclin B1 was less than 200 nM in each case.

Regarding `CS(=O)(=O)N1CCC(Nc2ncc3ccnc(N4CCC5(CCOCC5)C4)c3n2)CC1` [Compound 7, N-(1-(methylsulfonyl)piperidin-4-yl)-8-(8-oxa-2-azaspiro[4.5]decan-2-yl)pyrido[3,4-d]pyrimidin-2-amine], the IC50 at CDK6/Cyclin D3 is less than 200 nM; on CDK4/Cyclin D1 [3], less than 200 nM; at CDK1/Cyclin B1, 200 to 500 nM.

In the case of `CN1CCn2nc(Nc3ncc4ccnc(N5CCC6(C5)CC6(F)F)c4n3)cc2C1` (stereo not shown) [Compound 10, 8-(1,1-difluoro-5-azaspiro[2.4]heptan-5-yl)-N-(5-methyl-4,5,6,7-tetrahydropyrazolo [1,5-a]pyrazin-2-yl)pyrido[3,4-d]pyrimidin-2-amine], the IC50 at CDK6/Cyclin D3 was less than 200 nM; on CDK4/Cyclin D1 [3], less than 200 nM; against CDK1/Cyclin B1 it was more than 2000 nM.

For the compound `CS(=O)(=O)N1CC(Nc2ncc3ccnc(N4CCC5(C4)CC5(F)F)c3n2)C1` (stereo not shown) [Compound 14, 8-(1,1-difluoro-5-azaspiro[2.4]heptan-5-yl)-N-(1-(methylsulfonyl)azetidin-3-yl) pyrido[3,4-d]pyrimidin-2-amine], the IC50 is less than 200 nM on CDK6/Cyclin D3, less than 200 nM on CDK4/Cyclin D1 [3] and 200 to 500 nM against CDK1/Cyclin B1.

Turning to `CS(=O)(=O)N1CCC(Nc2ncc3ccnc(N4C[C@H]5c6ccccc6S(=O)(=O)[C@H]5C4)c3n2)CC1` [Compound 16, (3aR,8bR)-2-(2-((1-(methylsulfonyl)piperidin-4-yl)amino)pyrido[3,4-d]pyrimidin-8-yl)-2,3,3a,8b-tetrahydro-1H-benzo[4,5]thieno [2,3-c]pyrrole 4,4-dioxide], the IC50 (at CDK6/Cyclin D3; in test [2]; at CDK4/Cyclin D1 [3]; against CDK1/Cyclin B1) was less than 200 nM each time.

For the compound `CN1C[C@@H]2[C@H](C1)[C@H]2Nc1ncc2ccnc(N3CCC4(C3)CC4(F)F)c2n1` (stereo partly drawn) [Compound 17, 8-(1,1-difluoro-5-azaspiro[2.4]heptan-5-yl)-N-((1R,5S,6s)-3-methyl-3-azabicyclo[3.1.0]hexan-6-yl) pyrido[3,4-d]pyrimidin-2-amine], the IC50 on CDK6/Cyclin D3 is 200 to 500 nM; in test [2] it was 200 to 500 nM; on CDK4/Cyclin D1 [3], less than 200 nM.

On to `CCN1CC2(C1)CN(c1ccc(Nc3ncc4ccnc(N5CCC6(C5)CC6(F)F)c4n3)nc1)C2` (stereo not shown) [Compound 21, 8-(1,1-difluoro-5-azaspiro[2.4]heptan-5-yl)-N-(5-(6-ethyl-2,6-diazaspiro[3.3]heptan-2-yl)pyridin-2-yl)pyrido[3,4-d]pyrimidin-2-amine], for which the IC50 at CDK6/Cyclin D3 is less than 200 nM; in test [2] it was 200 to 500 nM; at CDK4/Cyclin D1 [3], less than 200 nM; against CDK1/Cyclin B1, more than 2000 nM.

For `Cc1cc2cnc(NC3CCN(S(C)(=O)=O)CC3)nc2c(C2CC(O)(C(F)F)C2)n1` (stereo not shown) [Compound 93, 1-(difluoromethyl)-3-(6-methyl-2-((1-(methylsulfonyl)piperidin-4-yl)amino)pyrido[3,4-d]pyrimidin-8-yl)cyclobutan-1-ol], the IC50 was 500 to 2000 nM in the test on MCF-7 cells (Homo sapiens, MCF7, 144 h); less than 200 nM on CDK6/Cyclin D3; less than 200 nM at CDK4/Cyclin D1 [1]; 500 to 2000 nM in the test with OVCAR-3 cells (Homo sapiens, 144 h); less than 200 nM against CDK1/Cyclin B1.

Consider `CS(=O)(=O)N1CCC(Nc2ncc3ccnc(N4CCC5(C4)CC(F)(F)C5)c3n2)CC1` [Example 2, 8-(2,2-difluoro-6-azaspiro[3.4]octan-6-yl)-N-(1-(methylsulfonyl)piperidin-4-yl)pyrido[3,4-d]pyrimidin-2-amine], for which the IC50 on CDK6/Cyclin D3, at CDK4/Cyclin D1 [3] and at CDK1/Cyclin B1 was less than 200 nM throughout.

As for `CCN1CC2(C1)CN(c1ccc(Nc3ncc4ccnc(N5CCC6(C5)CC(F)(F)C6)c4n3)nc1)C2` [Example 6, 8-(2,2-difluoro-6-azaspiro[3.4]octan-6-yl)-N-(5-(6-ethyl-2,6-diazaspiro[3.3]heptan-2-yl)pyridin-2-yl)pyrido[3,4-d]pyrimidin-2-amine], the IC50 on CDK6/Cyclin D3 was less than 200 nM; at CDK4/Cyclin D1 [3], less than 200 nM; on CDK1/Cyclin B1, more than 2000 nM.
